In patent publication US20030013099A1, “Genes regulated by DNA methylation in colon tumors” (priority 2001, published 2003):

System: HMEC cells
Test: microarray differential expression, HMEC cells treated with Aza
Format: cell-based, human
Conditions: vs untreated, log base 2, negative = upregulation
Description: HT29 cells were derived from a Grade II adenocarcinoma of the colon obtained from a person. HCT116 cells are a subpopulation of malignant cells isolated from a primary cell culture of a single human colonic carcinoma (Brattain et al. (1981) Cancer Res 41:1751-6). HMEC cells are a primary human epithelial cell line derived from the breast tissue of a normal donor. […] Treated cells were exposed to 500 nM 5-aza-2-deoxycytidine (Aza; Sigma-Aldrich) 24 hours after passage in complete culture medium. Control cultures were treated in parallel with phosphate buffered saline vehicle. After twenty-four hours, culture medium was replaced with drug-free medium. Control and Aza-treated cells were subcultured at equal densities at 1 and 5 days after the initial treatment, and proliferation was measured at the subsequent time point using a Coulter counter (Beckman Coulter, Fullerton Calif.). […]
Cells were harvested and lysed in 1 ml of TRIZOL reagent (5×10^6 cells/ml; Invitrogen). The lysates were vortexed thoroughly and incubated at room temperature for 2-3 minutes and extracted with 0.5 ml chloroform. The extract was mixed, incubated at room temperature for 5 minutes, and centrifuged at 16,000× g for 15 minutes at 4° C. The aqueous layer was collected, and an equal volume of isopropanol was added. Samples were mixed, incubated at room temperature for 10 minutes, and centrifuged at 16,000× g for 20 minutes at 4° C. The supernatant was removed, and the RNA pellet was washed with 1 ml of 70% ethanol, centrifuged at 16,000× g at 4° C., and resuspended in RNAse-free water. The concentration of the RNA was determined by measuring the optical density at 260 nm.
Poly(A) RNA was prepared using an OLIGOTEX mRNA kit (Qiagen) with the following modifications: OLIGOTEX beads were washed in tubes instead of on spin columns, resuspended in elution buffer, and then loaded onto spin columns to recover mRNA. To obtain maximum yield, the mRNA was eluted twice.
Each poly(A) RNA sample was reverse transcribed using MMLV reverse-transcriptase, 0.05 pg/μl oligo-d(T) primer (21mer), 1× first strand buffer, 0.03 units/ul RNAse inhibitor, 500 uM dAT?, 500 uM dGTP, 500 uM dTTP, 40 uM dCTP, and 40 uM either dCTP-Cy3 or dCTP-Cy5 (APB). The reverse transcription reaction was performed in a […] volume containing 200 ng poly(A) RNA using the GEMBRIGHT kit (Incyte Genomics). Specific control poly(A) RNAs (YCFRO6, YCFR45, YCFR67, YCFR85, YCFR43, YCFR22, YCFR23, YCFR25, YCFR44, YCFR26) were synthesized by in vitro transcription from non-coding yeast genomic DNA (W. Lei, unpublished). As quantitative controls, control mRNAs (YCFRO6, YCFR45, YCFR67, and YCFR85) at 0.002 ng, 0.02 ng, 0.2 ng, and 2 ng were diluted into reverse transcription reaction at ratios of 1:100,000, 1:10,000, 1:1000, 1:100 (w/w) to sample mRNA, respectively. To sample differential expression patterns, control mRNAs (YCFR43, YCFR22, YCFR23, YCFR25, YCFR44, YCFR26) were diluted into reverse transcription reaction at ratios of 1:3, 3:1, 1:10, 10:1, 1:25, 25:1 (w/w) to sample mRNA. Reactions were incubated at 37° C. for 2 hours, treated with […] of 0.5M sodium hydroxide, and incubated for 20 minutes at 85° C. to the stop the reaction and degrade the RNA.
cDNAs were purified using two successive CHROMA SPIN 30 gel filtration spin columns (Clontech). Cy3- and Cy5-labeled reaction samples were combined as described below and ethanol precipitated using […] of 100% ethanol. The cDNAs were then dried to completion using a SpeedVAC system (Savant Instruments, Holbrook N.Y.) and resuspended in 14 μl 5× SSC, 0.2% SDS.
Hybridization reactions contained 9 μl of sample mixture containing 0.2 μg each of Cy3 and CyS labeled cDNA synthesis products in 5× SSC, 0.2% SDS hybridization buffer. The mixture was heated to 65° C. for 5 minutes and was aliquoted onto the microarray surface and covered with an 1.8 cm^2 coverslip. […]

[1] = SEQ ID NO:33 cDNA clone YU62C03
[2] = SEQ ID NO:37, 38 MAGE-4b antigen
[3] = SEQ ID NO:49 phospholipid scramblase 1
[4] = SEQ ID NO:50 retinoid inducible gene 1
[5] = SEQ ID NO:51 interferon induced
[6] = SEQ ID NO:56 hepatitis C-associated microtubular aggregate
[7] = SEQ ID NO:58 Similar to keratin 7

## Nc1ncn([C@H]2C[C@H](O)[C@@H](CO)O2)c(=O)n1 [Aza, 5-aza-2-deoxycytidine]
SEQ ID NO:30 GAGE-8
  differential expression, Clone ID 4764233, HMEC t/Aza (9d): 0.00
SEQ ID NO:31 GAGE-7B
  differential expression, Clone ID 2511379, HMEC t/Aza (4d): 0.32
  differential expression, Clone ID 2511379, HMEC t/Aza (9d): 0.32
[1]
  differential expression, Clone ID 2471817, HMEC t/Aza (4d): 0.07
  differential expression, Clone ID 2471817, HMEC t/Aza (9d): 0.00
SEQ ID NO:34 MAGE-11 antigen
  differential expression, Clone ID 3333736, HMEC t/Aza (4d): 0.06
  differential expression, Clone ID 3333736, HMEC t/Aza (9d): 0.00
SEQ ID NO:35 GAGE-8
  differential expression, Clone ID 1304365, HMEC t/Aza (4d): 0.00
  differential expression, Clone ID 1304365, HMEC t/Aza (9d): 0.00
[2]
  differential expression, Clone ID 2657056, HMEC t/Aza (4d): 0.13
  differential expression, Clone ID 2657056, HMEC t/Aza (9d): 0.00
SEQ ID NO:39 MAGE-9 antigen
  differential expression, Clone ID 2507719, HMEC t/Aza (4d): −0.48
  differential expression, Clone ID 2507719, HMEC t/Aza (9d): −0.24
SEQ ID NO:41 MAGE-1
  differential expression, Clone ID 4688, HMEC t/Aza (4d): −0.13
  differential expression, Clone ID 4688, HMEC t/Aza (9d): −0.13
SEQ ID NO:42 HM74
  differential expression, Clone ID 2068708, HMEC t/Aza (4d): −0.50
  differential expression, Clone ID 2068708, HMEC t/Aza (9d): −0.24
SEQ ID NO:43 1-8D
  differential expression, Clone ID 23770, HMEC t/Aza (4d): −0.48
  differential expression, Clone ID 23770, HMEC t/Aza (9d): −0.63
SEQ ID NO:45 Incyte Unique
  differential expression, Clone ID 1616783, HMEC t/Aza (4d): −0.53
  differential expression, Clone ID 1616783, HMEC t/Aza (9d): −0.20
SEQ ID NO:46 cDNA FLJ20120
  differential expression, Clone ID 820942, HMEC t/Aza (4d): −0.48
  differential expression, Clone ID 820942, HMEC t/Aza (9d): −0.20
SEQ ID NO:47 Incyte Unique
  differential expression, Clone ID 891322, HMEC t/Aza (4d): 0.00
  differential expression, Clone ID 891322, HMEC t/Aza (9d): 0.00
SEQ ID NO:48 U5 A RNA
  differential expression, Clone ID 2755836, HMEC t/Aza (4d): −0.26
  differential expression, Clone ID 2755836, HMEC t/Aza (9d): −0.31
[3]
  differential expression, Clone ID 1227521, HMEC t/Aza (4d): −0.19
  differential expression, Clone ID 1227521, HMEC t/Aza (9d): −0.63
[4]
  differential expression, Clone ID 2200842, HMEC t/Aza (4d): 0.00
  differential expression, Clone ID 2200842, HMEC t/Aza (9d): 0.00
[5]
  differential expression, Clone ID 2238363, HMEC t/Aza (4d): −0.50
  differential expression, Clone ID 2238363, HMEC t/Aza (9d): −0.29
SEQ ID NO:53 TRAIL
  differential expression, Clone ID 1495382, HMEC t/Aza (4d): −0.48
  differential expression, Clone ID 1495382, HMEC t/Aza (9d): −0.19
SEQ ID NO:55 rhoB
  differential expression, Clone ID 1998269, HMEC t/Aza (4d): −0.29
  differential expression, Clone ID 1998269, HMEC t/Aza (9d): −0.68
[6]
  differential expression, Clone ID 1919287, HMEC t/Aza (4d): 0.00
  differential expression, Clone ID 1919287, HMEC t/Aza (9d): 0.00
SEQ ID NO:57 HE4 protein
  differential expression, Clone ID 2637446, HMEC t/Aza (4d): 0.00
  differential expression, Clone ID 2637446, HMEC t/Aza (9d): 0.00
[7]
  differential expression, Clone ID 1962141, HMEC t/Aza (4d): 0.00
  differential expression, Clone ID 1962141, HMEC t/Aza (9d): −0.07
SEQ ID NO:60 Incyte Unique
  differential expression, Clone ID 4933404, HMEC t/Aza (4d): 0.96
  differential expression, Clone ID 4933404, HMEC t/Aza (9d): 0.48
SEQ ID NO:61 Keratin 8
  differential expression, Clone ID 2150288, HMEC t/Aza (4d): −0.67
  differential expression, Clone ID 2150288, HMEC t/Aza (9d): −0.42
  differential expression, Clone ID 2697455, HMEC t/Aza (4d): −0.63
  differential expression, Clone ID 2697455, HMEC t/Aza (9d): −0.37
